Results: patent US20040259818A1, “Glucoronide adduct as gaba ligand” (priority 2001, published 2004)

How the values were obtained:
[1] = target: α2 and/or α3 subunit of the human GABAA receptor; experiment: [3H]-flumazenil displacement binding assay, α2 and/or α3 subunit; conditions: displacement of [3H]-flumazenil; human GABAA receptors stably expressed in Ltk- cells; read-out: binding affinity (Ki) for the α2 and/or α3 subunit
Experimental: Assay buffer: 10 mM KH2PO4, 100 mM KCl, pH 7.4 at room temperature.
Flunitrazepam 100 μM in assay buffer.
Cells resuspended in assay buffer (1 tray to 10 ml).
Supernatant is removed from cells. PBS (approximately 20 ml) is added. The cells are scraped and placed in a 50 ml centrifuge tube. The procedure is repeated with a further 10 ml of PBS to ensure that most of the cells are removed. The cells are pelleted by centrifuging for 20 min at 3000 rpm in a benchtop centrifuge, and then frozen if desired. The pellets are resuspended in 10 ml of buffer per tray (25 cm×25 cm) of cells.
Can be carried out in deep 96-well plates or in tubes. Each tube contains:
50 μl of buffer or solvent carrier (e.g. 10% DMSO) if compounds are dissolved in 10% DMSO (total); test compound or flunitrazepam (to determine non-specific binding), 10 μM final concentration.
Assays are incubated for 1 hour at 40° C., then filtered using either a Tomtec or Brandel cell harvester onto GF/B filters followed by 3×3 ml washes with ice cold assay buffer. Filters are dried and counted by liquid scintillation counting. […] Binding parameters are determined by non-linear least squares regression analysis, from which the inhibition constant Ki can be calculated for each test compound.

[2] = target: T1, α3 subunit of the human GABAA receptor relative to α1 subunit (Homo sapiens, UniProt P18507+P34903); experiment: potentiation of the GABA EC20 response in stably transfected recombinant cell lines; format: cell-based; conditions: stably transfected recombinant cell lines expressing α3 vs α1 subunit of the human GABAA receptor
T1 construct: expressed in transfected cells; host or cells: stably transfected eukaryotic cells, typically mouse Ltk- fibroblasts
T1 sequence (P34903 29-492): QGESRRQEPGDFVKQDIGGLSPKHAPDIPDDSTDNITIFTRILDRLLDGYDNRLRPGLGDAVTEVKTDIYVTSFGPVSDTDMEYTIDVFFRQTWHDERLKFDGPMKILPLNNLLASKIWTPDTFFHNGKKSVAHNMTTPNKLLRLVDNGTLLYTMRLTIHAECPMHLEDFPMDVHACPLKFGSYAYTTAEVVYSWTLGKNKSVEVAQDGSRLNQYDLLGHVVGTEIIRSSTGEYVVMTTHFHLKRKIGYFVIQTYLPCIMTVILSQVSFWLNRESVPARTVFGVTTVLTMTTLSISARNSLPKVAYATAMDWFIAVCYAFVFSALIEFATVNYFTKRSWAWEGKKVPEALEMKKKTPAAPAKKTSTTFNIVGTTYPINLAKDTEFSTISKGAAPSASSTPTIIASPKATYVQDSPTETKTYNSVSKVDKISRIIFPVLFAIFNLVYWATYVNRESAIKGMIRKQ
T1 sequence (P28472 26-473 partner): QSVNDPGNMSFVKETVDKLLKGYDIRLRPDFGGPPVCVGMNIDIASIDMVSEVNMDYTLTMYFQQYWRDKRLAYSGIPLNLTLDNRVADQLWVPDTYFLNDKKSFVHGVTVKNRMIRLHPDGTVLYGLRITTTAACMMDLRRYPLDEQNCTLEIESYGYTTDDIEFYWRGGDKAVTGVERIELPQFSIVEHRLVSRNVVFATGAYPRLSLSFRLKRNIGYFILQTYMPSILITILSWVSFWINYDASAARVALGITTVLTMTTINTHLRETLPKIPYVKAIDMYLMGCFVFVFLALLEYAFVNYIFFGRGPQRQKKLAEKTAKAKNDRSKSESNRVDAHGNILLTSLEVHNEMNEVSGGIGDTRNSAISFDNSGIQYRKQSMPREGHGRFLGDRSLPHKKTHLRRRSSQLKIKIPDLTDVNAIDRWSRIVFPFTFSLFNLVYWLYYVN
T1 sequence (P18507 40-467 limits assumed): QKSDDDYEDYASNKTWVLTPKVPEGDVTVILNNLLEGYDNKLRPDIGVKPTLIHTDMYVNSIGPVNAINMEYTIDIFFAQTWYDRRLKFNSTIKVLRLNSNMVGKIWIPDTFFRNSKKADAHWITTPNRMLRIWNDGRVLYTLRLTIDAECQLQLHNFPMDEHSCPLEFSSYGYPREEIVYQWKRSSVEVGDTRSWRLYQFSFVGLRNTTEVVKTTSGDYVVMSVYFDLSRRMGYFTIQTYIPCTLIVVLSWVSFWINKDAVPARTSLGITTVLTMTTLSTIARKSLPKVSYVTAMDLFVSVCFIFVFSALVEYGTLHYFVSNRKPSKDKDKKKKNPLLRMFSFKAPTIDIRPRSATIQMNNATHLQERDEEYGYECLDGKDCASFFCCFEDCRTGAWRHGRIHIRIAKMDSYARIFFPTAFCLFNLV
Text: The potentiation of the GABA EC20 response in stably transfected cell lines expressing the α3 and α1 subunits of the human GABAA receptor can conveniently be measured by procedures analogous to the protocol described in Wafford et al., Mol. Pharmacol., 1996, 50, 670-678. The procedure will suitably be carried out utilising cultures of stably transfected eukaryotic cells, typically of stably transfected mouse Ltk^− fibroblast cells.

elevated plus maze test = conditions: in vivo
[3] = conditioned suppression of drinking test; conditions: in vivo
[4] = response sensitivity (chain-pulling) test; conditions: in vivo
[5] = brain penetration inferred from behavioural effects; format: in vivo; conditions: inferred because it elicits behavioural effects
Text: Since it elicits behavioural effects, the triazolo-pyridazine derivative of the invention plainly is brain-penetrant; in other words, it is capable of crossing the so-called “blood-brain barrier”. Advantageously, the triazolo-pyridazine derivative of the invention is capable of exerting its beneficial therapeutic action following administration by the oral route.

α3β3γ2 GABAA/BzR = α3β3γ2 GABAA/BzR (Homo sapiens, UniProt P18507+P34903); experiment: biochemical
Sequence of α3β3γ2 GABAA/BzR (P18507 whole entry, looked up): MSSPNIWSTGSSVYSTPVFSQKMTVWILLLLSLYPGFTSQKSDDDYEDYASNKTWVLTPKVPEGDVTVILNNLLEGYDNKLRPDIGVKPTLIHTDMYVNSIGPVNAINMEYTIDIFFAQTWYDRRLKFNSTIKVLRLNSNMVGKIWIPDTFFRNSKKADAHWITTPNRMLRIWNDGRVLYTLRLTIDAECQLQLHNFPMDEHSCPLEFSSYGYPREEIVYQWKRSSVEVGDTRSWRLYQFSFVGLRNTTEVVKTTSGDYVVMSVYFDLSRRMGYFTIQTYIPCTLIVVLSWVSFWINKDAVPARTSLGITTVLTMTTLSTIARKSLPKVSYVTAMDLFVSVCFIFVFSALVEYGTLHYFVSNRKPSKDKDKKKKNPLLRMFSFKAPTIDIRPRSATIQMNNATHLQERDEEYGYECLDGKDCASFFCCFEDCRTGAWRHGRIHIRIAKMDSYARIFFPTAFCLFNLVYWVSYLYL
Sequence of α3β3γ2 GABAA/BzR (P34903 whole entry, looked up): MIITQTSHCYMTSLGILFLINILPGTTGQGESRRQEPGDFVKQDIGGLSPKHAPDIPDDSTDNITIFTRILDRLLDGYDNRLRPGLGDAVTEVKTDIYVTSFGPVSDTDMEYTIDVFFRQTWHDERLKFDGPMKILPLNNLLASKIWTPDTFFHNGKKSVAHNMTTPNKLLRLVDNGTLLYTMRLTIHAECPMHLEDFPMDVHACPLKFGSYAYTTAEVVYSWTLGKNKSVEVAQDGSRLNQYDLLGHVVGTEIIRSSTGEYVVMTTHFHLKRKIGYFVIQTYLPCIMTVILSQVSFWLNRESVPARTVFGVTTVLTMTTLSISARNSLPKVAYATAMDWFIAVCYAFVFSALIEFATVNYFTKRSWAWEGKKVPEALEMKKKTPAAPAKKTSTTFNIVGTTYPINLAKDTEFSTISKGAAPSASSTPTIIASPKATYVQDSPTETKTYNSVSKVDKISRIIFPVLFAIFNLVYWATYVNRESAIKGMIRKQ

SMILES: CCn1ncnc1COc1nn2c(-c3ccccc3F)nnc2cc1C(C)(C)C [triazolo-pyridazine derivative, 7-(1,1-dimethylethyl)-6-(2-ethyl-2H-1,2,4-triazol-3-ylmethoxy)-3-(2-fluorophenyl)-1,2,4-triazolo[4,3-b]pyridazine]
- Ki [1]: < 1 nM
- potentiation of the GABA EC20 response, α3 relative to α1 [2]: selective potentiation
- anxiolytic activity, elevated plus maze (elevated plus maze test): positive response
- anxiolytic activity, conditioned suppression of drinking [3]: positive response
- sedation, response sensitivity (chain-pulling) test [4]: substantially non-sedating
- brain penetration (crossing the blood-brain barrier) [5]: brain-penetrant
- Ki (α3β3γ2 GABAA/BzR): < 1 nM
